Patent US11116213B2, “Herbicidal composition comprising cinmethylin and pethoxamid” (BASF Agro B.V., priority 2015, dated 2021)

Key:
Type in all cases: in vivo
Alopecurus myosuroides = assay: Greenhouse pre-emergence herbicidal activity on ALOMY; details: 20 DAT
Protocol: (§1) The test plants have been seeded, separately for each species, in plastic containers in sandy loamy soil containing 5% of organic matter.
(§2) The containers were irrigated gently to promote germination and growth and subsequently covered with transparent plastic hoods until the plants had rooted.
(§3) The plants have been cultivated due to their individual requirements at 10-25° C. and 20-35° C.
(§4) The plants were irrigated due to their necessity.
(§5) The racemic mixture (±)-2-exo-(2-Methylbenzyloxy)-1-methyl-4-isopropyl-7-oxabicyclo[2.2.1]heptane was used as herbicide A and formulated as an emulsifiable concentrate with an active ingredient concentration of 750 g/l.
(§6) Pethoxamid (herbicide B) was used as an emulsifiable concentrate formulation having an active ingredient concentration of 600 g/l.
(§7) In the following experiments, the herbicidal activity for the individual herbicidal compositions (solo and mixture applications) was assessed 20 days after treatment (DAT).
(§8) The evaluation for the damage on undesired weeds caused by the chemical compositions was carried out using a scale from 0 to 100%, compared to the untreated control plants. Here, 0 means no damage and 100 means complete destruction of the plants. […]

Avena fatua = assay: Greenhouse pre-emergence herbicidal activity on AVEFA; details: 20 DAT; for herbicidal activity (%): herbicide A solo
Protocol: as §1, §2, §3, §4, §5, §6, §7
(§9) The evaluation for the damage on undesired weeds caused by the chemical compositions was carried out using a scale from 0 to 100%, compared to the untreated control plants. Here, 0 means no damage and 100 means complete destruction of the plants.
(§10) E=X+Y−(X·Y/100) where • X=effect in percent using herbicide A at an application rate a; • Y=effect in percent using herbicide B at application rate b; • E=expected effect (in %) of herbicide A+herbicide B at application rates a+b.
(§11) The value E corresponds to the effect (plant damage or injury) which is to be expected if the activity of the individual compounds is additive.
(§12) Table 1 below relates to the herbicidal activity, in greenhouse trials, of the individual actives and the combinations applied at different rates and ratios, in pre-emergence application at 20 days after treatment (DAT).

Lolium multiflorum = assay: Greenhouse pre-emergence herbicidal activity on LOLMU; details: 20 DAT
Protocol: as §1, §2, §3, §4, §5, §6, §7, §8

Polygonum convolvulus = assay: Greenhouse pre-emergence herbicidal activity on POLCO; details: 20 DAT; for herbicidal activity (%): herbicide A solo
Protocol: as §1, §2, §3, §4, §5, §6, §7, §9, §10, §11, §12

Chenopodium album = assay: Greenhouse pre-emergence herbicidal activity on CHEAL; details: 20 DAT
Protocol: as §1, §2, §3, §4, §5, §6, §7, §8

Brassica napus = assay: Greenhouse pre-emergence herbicidal activity on BRSNW; details: 20 DAT
Protocol: as §1, §2, §3, §4, §5, §6, §7, §8

Anthemis arvensis = assay: Greenhouse pre-emergence herbicidal activity on ANTAR; details: 20 DAT; for herbicidal activity (%): herbicide A solo
Protocol: as §1, §2, §3, §4, §5, §6, §7, §9, §10, §11, §12

Sorghum halepense = assay: Greenhouse pre-emergence herbicidal activity on SORHA; details: 20 DAT
Protocol: as §1, §2, §3, §4, §5, §6, §7, §8

Abutilon theophrasti = assay: Greenhouse pre-emergence herbicidal activity on ABUTH; details: 20 DAT
Protocol: as §1, §2, §3, §4, §5, §6, §7, §8

Setaria viridis = assay: Greenhouse pre-emergence herbicidal activity on SETVI; details: 20 DAT
Protocol: as §1, §2, §3, §4, §5, §6, §7, §8

[1] = herbicide A solo, 31.25 g ai/ha

CCOCCN(C(=O)CCl)C(=C(C)C)c1ccccc1 [pethoxamid, 2-chloro-N-(2-ethoxyethyl)-N-(2-methyl-1-phenylprop-1-enyl)acetamide]
inhibition at 125 g/ha (Alopecurus myosuroides; Alopecurus myosuroides, 480 h, pethoxamid solo, 125 g ai/ha): 35%
inhibition at 125 g/ha (Avena fatua; Avena fatua, 480 h, pethoxamid solo, 125 g ai/ha): 40%
inhibition at 250 g/ha (Avena fatua; Avena fatua, 480 h, pethoxamid solo, 250 g ai/ha): 40%
inhibition at 500 g/ha (Avena fatua; Avena fatua, 480 h, pethoxamid solo, 500 g ai/ha): 50%
inhibition at 62.5 g/ha (Lolium multiflorum; Lolium multiflorum, 480 h, pethoxamid solo, 62.5 g ai/ha): 50%
inhibition at 125 g/ha (Polygonum convolvulus; Fallopia convolvulus, 480 h, pethoxamid solo, 125 g ai/ha): 15%
inhibition at 250 g/ha (Polygonum convolvulus; Fallopia convolvulus, 480 h, pethoxamid solo, 250 g ai/ha): 15%
inhibition at 500 g/ha (Polygonum convolvulus; Fallopia convolvulus, 480 h, pethoxamid solo, 500 g ai/ha): 30%
inhibition at 62.5 g/ha (Chenopodium album; Chenopodium album, 480 h, pethoxamid solo, 62.5 g ai/ha): 40%
inhibition at 500 g/ha (Brassica napus; Brassica napus, 480 h, pethoxamid solo, 500 g ai/ha): 0%
inhibition at 62.5 g/ha (Anthemis arvensis; Anthemis arvensis, 480 h, pethoxamid solo, 62.5 g ai/ha): 20%
inhibition at 125 g/ha (Anthemis arvensis; Anthemis arvensis, 480 h, pethoxamid solo, 125 g ai/ha): 60%
inhibition at 125 g/ha (Sorghum halepense; Sorghum halepense, 480 h, pethoxamid solo, 125 g ai/ha): 85%
inhibition at 62.5 g/ha (Abutilon theophrasti; Abutilon theophrasti, 480 h, pethoxamid solo, 62.5 g ai/ha): 20%
inhibition at 62.5 g/ha (Setaria viridis; Setaria viridis, 480 h, pethoxamid solo, 62.5 g ai/ha): 80%

(±)-2-exo-(2-Methylbenzyloxy)-1-methyl-4-isopropyl-7-oxabicyclo[2.2.1]heptane [herbicide A]
herbicidal activity (%) (Alopecurus myosuroides; herbicide A solo, 62.5 g ai/ha): 98%
herbicidal activity (%) (Avena fatua; 62.5 g ai/ha): 0%
herbicidal activity (%) (Avena fatua; 125 g ai/ha): 25%
herbicidal activity (%) (Avena fatua; 250 g ai/ha): 35%
herbicidal activity (%) (Lolium multiflorum; [1]): 60%
herbicidal activity (%) (Polygonum convolvulus; 62.5 g ai/ha): 0%
herbicidal activity (%) (Polygonum convolvulus; 125 g ai/ha): 0%
herbicidal activity (%) (Polygonum convolvulus; 250 g ai/ha): 15%
herbicidal activity (%) (Chenopodium album; [1]): 40%
herbicidal activity (%) (Brassica napus; herbicide A solo, 250 g ai/ha): 0%
herbicidal activity (%) (Anthemis arvensis; 31.25 g ai/ha): 0%
herbicidal activity (%) (Anthemis arvensis; 62.5 g ai/ha): 0%
herbicidal activity (%) (Sorghum halepense; herbicide A solo, 62.5 g ai/ha): 80%
herbicidal activity (%) (Abutilon theophrasti; [1]): 30%
herbicidal activity (%) (Setaria viridis; [1]): 90%
